Data taken from publication PMC9026853, “Design, Physicochemical Characterization, and In Vitro Permeation of Innovative Resatorvid Topical Formulations for Targeted Skin Drug Delivery” (Pharmaceutics, 2022).
“And” between values parts separate entries of the source, which are not always exact repeats. Equal entries are not always repeated.

Columns and labels:
[1] = In vitro oil-water partitioning coefficient (Log-P), 1-octanol/PBS, HPLC; type: physicochemical; settings: for Experimental (Log-P): n = 3, mean ± SD; for partition coefficient (Log-P), range over pH: pH 6.5, 7.1, 8.8
Protocol: The HPLC consisted of a Shimadzu LC-2010A HT liquid chromatograph (Torrance, CA, USA), coupled with a UV–Vis dual wavelength detector. The analysis was performed by a reverse-phase HPLC assay, using a Luna C18, 5 μm column (250 mm × 2 mm) (Phenomenex, Torrance, CA, USA), maintained at 25 °C ± 2 °C. Ultraviolet detection was done at 254 nm. The mobile phase conditions were 50:50 (v/v) acetonitrile: trifluoroacetic acid (0.1% v/v) at a flow rate of 0.3 mL/min. The injection volume was 10 µL. The retention time for resatorvid was ~15.9 min. Quantification was determined using peak area and calculated from a five-point standard curve (0.0625 mg/mL to 1 mg/mL, R^2 = 0.9971). Standards were prepared by volumetric dilution in acetonitrile and stored at 4 °C, protected from light. The modifications made to the method were using a column length of 250 mm × 2 mm instead of 150 mm × 2.1 mm and a mobile phase of 50:50 (v/v) acetonitrile: trifluoroacetic acid (0.1% v/v) instead of 40:60 (v/v) acetonitrile: trifluoroacetic acid (0.1% v/v) as previously reported.
Resatorvid raw powder was weighed out (0.003 g) and placed in 2 dram amber-colored glass vials containing equal volumes (1.5 mL) of 1-octanol and PBS (1×, pH = 7.4) to make a 1 mg/mL solution. Various solutions were made, and the pH was adjusted and maintained at pH values of 6.5, 7.1, 8.8. Adjustments to the pH were made using 0.1 M hydrochloric acid (HCl) solution and 0.1 M sodium hydroxide (NaOH) solution. […] The vials were rotated using a Barnstead/Thermolyne Labquake shaker (Dubuque, IA, USA) for 24 h and left undisturbed in a vertical position for an additional 24 h for phase separation between the aqueous and non-aqueous layers. Then, 200 μL of the organic and aqueous layers were sampled very carefully without disturbing the separation of phases and analyzed via the HPLC method previously mentioned.

[2] = In vitro cell dose-response (resazurin viability) in 2D culture, HaCaT; type: cell-based, human; settings: human, HaCaT cells (transformed keratinocytes), 2D culture; concentrations at 0.01 µM and 0.1 µM
Protocol: (§1) The effects of raw resatorvid on the viability of human representative keratinocyte cell lines exposed to concentrations at 1000 μM, 100 μM, 10 μM, 1 µM, 0.1 µM, and 0.01 µM were tested. HaCaT cells (a human transformed keratinocyte from a histologically normal skin cell line) and primary NHEKs (normal human epidermal keratinocyte cells) were used as models of the human epidermis, which generates keratinocytes in the stratum basale and then differentiates into the final barrier layer of the skin, the stratum corneum. The HaCaT cells were grown in Dulbecco’s modified Eagle’s medium (DMEM), Optimized 1×, 10% (v/v) FBS, and Pen-Strep (100 units/mL penicillin, 100 µg/mL) in a humidified incubator at 37 °C and 5% CO2. The NHEK cells were grown in an NHEK growth medium provided by MatTek (Ashland, MA, USA) in a humidified incubator at 37 °C and 5% CO2.
(§2) After confluence, the HaCaT and NHEK cells were seeded in a black 96-well plate at a concentration of 5000 cells in 100 µL of media/well, then incubated for 48 h to allow attachment to the surface of the plates. After 48 h, the cells were then exposed to the different concentrations of resatorvid previously mentioned. The drug solutions were prepared by dissolving raw resatorvid powder in 5% (v/v) DMSO and adequate growth medium to make a solution at 1×. A volume of 100 µL of drug solution was added to each well. […] The fluorescence intensity of resorufin was detected at 544 nm (excitation) and 590 nm (emission) using the Molecular Devices® SpectraMax® M3 Multi-Mode Microplate Reader (Sunnyvale, CA, USA). The relative viability of the cells was calculated as followed by Equation (1):(1) Relative Viability %=Sample flourescence intensity/Control flourescece intensity×100%

[3] = system: HaCaT cells; assay: as above; type: cell-based, human; settings: for toxicity to HaCaT cells: 0.01-1000 µM raw resatorvid, 72 h exposure as printed in results
Protocol: as §1, §2

[4] = In vitro cell dose-response (resazurin viability) in 2D culture, NHEK; type: cell-based, human; settings: human; all concentrations (0.01-1000 µM); read-out: viability of NHEK cells
Protocol: as §1, §2

[5] = system: primary normal human epidermal keratinocytes (NHEKs); assay: as above; type: cell-based; settings: 0.01-1000 µM raw resatorvid, 72 h exposure as printed in results
Protocol: as §1, §2

[6] = Residual water content by Karl Fisher coulometric titration; type: physicochemical; settings: KFT, n = 4, mean ± SD, Table S2
Protocol: The residual water content of raw resatorvid powder was quantified by coulometric KFT using a TitroLine 750 trace titrator (SI Analytics, Weilheim, Germany). In brief, 1 mL of 0.1% (w/v) of resatorvid in anhydrous methanol was added to the titration cell containing Hydranal® Coulomat AD reagent.

[7] = Particle sizing by SEM image analysis; type: physicochemical
From the text: The particle size and surface morphology of raw resatorvid were obtained using scanning electron microscopy (SEM) (FEI, Brno, Czech Republic). The samples were sprinkled onto the double-sided adhesive carbon tabs (Ted Patella, Inc. Redding, CA, USA), which were adhered to aluminum stubs and coated with a 7 nm thin film of gold palladium alloy, using an Anatech Hummer 6.2 (Union City, CA, USA) sputtering system at 20 µA for 90 s under an argon plasma. The electron beam with an accelerating voltage of 30 kV was used at a working distance of approximately 9–12 mm. The SEM images were collected at various magnifications.
Using SEM micrographs, the mean size, standard deviation, and size range of the particles were determined digitally using SigmaScan^TM Pro 5.0.0 (Systat, Inc., San Jose, CA, USA). Representative micrographs of raw resatorvid at 400–5000× magnification were analyzed by measuring the diameter of at least 60 particles per sampling.

[8] = method and reference not given; cited from earlier work
[9] = parameters: method as in PMID 29437671; settings: standardized Franz cell system; cited from earlier work
[10] = system: SKH-1 mice; parameters: method as in PMID 29437671; settings: topical, cited from earlier work

In the case of `CCOC(=O)C1=CCCC[C@H]1S(=O)(=O)Nc1ccc(F)cc1Cl` [resatorvid, ethyl (6R)-6-[N-(2-Chloro-4-fluorophenyl)sulfamoyl]cyclohex-1-ene-1-carboxylate], the “Experimental (Log-P)” value ([1]; At 35 °C, pH = 6.5, 1-octanol/PBS) is reported as 1.65 ± 0.029, the “Experimental (Log-P)” value ([1]; At 35 °C, pH = 7.1) is reported as 1.68 and 1.68 ± 0.013 and the “Experimental (Log-P)” value ([1]; At 35 °C, pH = 8.8) is reported as 0.94 ± 0.023. For the same compound, the “Experimental (Log-P)” value ([1]; At Room temperature/ambient temperature, pH = 6.5) was 1.58 ± 0.019, the “Experimental (Log-P)” value ([1]; At Room temperature/ambient temperature, pH = 7.1) was 1.54 ± 0.149 and the “Experimental (Log-P)” value ([1]; At Room temperature/ambient temperature, pH = 8.8) was 0.88 ± 0.060. The “partition coefficient (Log-P), range over pH” value ([1]; at 35 °C) was 0.94–1.68, the “partition coefficient (Log-P), range over pH” value ([1]; at room/ambient temperature) was 0.88–1.58 and the viability at 48 h [2] was about 100%. For the same compound, the “toxicity to HaCaT cells” value [3] was “negligible toxicity”, the “toxicity to HaCaT cells” value ([3]; listed as Resatorvid) was “did not show any significant toxicity” and the “effect on HaCaT cells at higher concentrations” value ([3]; concentration increased from 1 µM to 1000 µM) was “cell proliferation was observed”. For the same compound, the viability at 48 h [4] was about 100%, the “toxicity to NHEK cells” value [5] was “negligible toxicity” and the “toxicity to NHEK cells” value ([5]; listed as Resatorvid) was “did not show any significant toxicity”. For the same compound, the “Residual Water content” value [6] was 0.0173 ± 0.0156 %w/w, the “average geometric (linear) size of the raw particles” value [7] was 5.84 µm and the “experimentally determined pKa reported” value [8] was 8.0–8.1. The amount of resatorvid in the lower epidermis (tape strips 4–12), average over time course [9] was 5 µg/cm^2, the “time remaining in the skin” value [9] was “at least 8 hr” and the “modulation of UV-induced biomarkers” value ([10]; acetone solution of TAK-242 (13 mM), SKH-1 mice) was “successfully modulated UV-induced biomarkers”. For the same compound, the “UV-induced AP-1 activation” value ([10]; mice) was “reduces UV-induced AP-1 activation” and the photocarcinogenesis ([10]; mice) was “inhibits photocarcinogenesis”.
